Assay results as given in patent US20240400554A1, “MONOACYLGLYCEROL LIPASE (MAGL) INHIBITORS FOR THE TREATMENT OF PAIN AND RELATED MEDICAL DISORDERS” (Humanwell Pharmaceutical US, Inc., priority 2023, published 2024).

Tests used:
[1] = system: 2% formalin model in SD rats; assay: Formalin-induced pain model; assay type: in vivo; conditions: 3 mg/kg p.o.; for inhibition in vivo at 3 mg/kg: Rattus norvegicus, po, 1 h, movements (lifts and licks) 0-60 min after formalin, read-out: MPE % (Maximum Possible Effect)
Experimental: A diluted formalin solution is injected subcutaneously into the hind paw of rats using a microsyringe, creating a continuous noxious stimulus that induces spontaneous pain behaviors in the animals. The experiment can record the number of lifts and licks of the rat's foot through an autonomous movement analyzer to assess the degree of pain. This experiment uses a 2% formalin model in SD rats and tests the analgesic activity of compounds by oral administration. After injecting 2% formalin, the number of movements (lifts and licks of the injected foot) from 0-60 min after injecting the formalin solution is recorded and analyzed.
The Maximum Possible Effect (MPE %) is calculated as a percentage:
Note: (1) MPE % for each group is calculated with sham group MPE=100% and vehicle group MPE=0% as standards. (2) Movement counts of the sham group are subtracted to exclude the impact of background noise on the experiment. (2) “Sham” represents the average value of the sham group; “Vehicle-Sham” represents the average value of the vehicle group minus the sham group.
Results are presented as mean values with standard error. Data from each group are analyzed and graphed using GraphPad Prism 8 software. Statistical analysis is conducted using one-way ANOVA to determine statistical differences between groups, with t-tests used for comparisons between two groups. A p-value <0.05 is considered statistically significant.

[2] = target: T1, human recombinant MAGL (monoacylglycerol lipase) (Homo sapiens, UniProt Q99685); assay: In vitro MAGL enzyme inhibition assay (Cayman Monoacylglycerol Lipase Inhibitor Screening Assay, 4-nitrophenylacetate hydrolysis); assay type: biochemical; conditions: 4-nitrophenylacetate substrate, 15 min preincubation, absorbance 405-415 nm
T1 construct: purchased Cayman Chemical Item No. 705192
T1 sequence (Q99685 1-303): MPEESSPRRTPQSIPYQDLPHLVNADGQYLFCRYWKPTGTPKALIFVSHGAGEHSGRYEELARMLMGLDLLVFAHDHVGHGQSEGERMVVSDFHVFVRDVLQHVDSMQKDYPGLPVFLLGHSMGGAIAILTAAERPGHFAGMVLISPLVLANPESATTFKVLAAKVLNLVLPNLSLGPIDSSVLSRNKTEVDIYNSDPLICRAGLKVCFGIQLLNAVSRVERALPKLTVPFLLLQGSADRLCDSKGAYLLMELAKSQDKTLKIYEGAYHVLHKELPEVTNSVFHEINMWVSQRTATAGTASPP
Experimental: Monoacylglycerol Lipase Inhibitor Screening Assay provides a convenient method for screening human MAGL inhibitors.
Dilute 3 ml of MAGL Assay Buffer (10×) concentrate with 27 ml of ultrapure water. This final 1× Assay Buffer (10 mM Tris-HCl, pH 7.2, containing 1 mM EDTA) should be used in the assay and for the dilution of MAGL enzyme, substrate, and MAGL inhibitor. The 1× Assay Buffer is stable for at least six months if stored at −20° C.
The vial contains 0.5 ml of 17 mM ethanolic solution of 4-nitrophenylacetate. Mix 150 μL of this solution with 450 μl of 1× Assay Buffer prior to testing. This is enough substrate to assay 50 wells. Dilute additional substrate if using the entire plate.
This vial contains 100 μl of a solution of human recombinant MAGL (monoacylglycerol lipase). The thawed enzyme should be stored on ice. Dilute 30 μl of enzyme with 570 μl of 1×MAGL Assay Buffer. This is enough enzyme to assay 50 wells. Dilute additional enzyme if using the entire plate. The diluted enzyme is stable for four hours on ice.
This vial contains 20 nmol of inhibitor. Resuspend in 125 μl of DMSO, then add 125 μl of 1× Assay Buffer and vortex to make an 80 μM stock.
1). 100% Initial Activity Wells—add 150 μl of 1× Assay Buffer, 10 μl of MAGL enzyme, and 10 μl of solvent (same solvent used to dissolve the inhibitor) to three wells.
2). Background Wells—add 160 μl of 1× Assay Buffer and 10 μl of solvent (same solvent used to dissolve the inhibitor) to three wells.
3). Inhibitor/Positive Control Wells—add 150 μl of 1× Assay Buffer, 10 μl of MAGL enzyme, and 10 μl of inhibitor* or positive control inhibitor to the inhibitor wells.
4). Mix the contents of the wells by pipetting gently up and down and incubate for 15 minutes at room temperature. The incubation time for different inhibitors may vary and will need to be optimized by the user.
5). Initiate the reactions by adding 10 μl of MAGL Substrate to all the wells being used. Carefully shake the 96-well plate for 10 seconds to mix and cover with the plate cover. Incubate for ten minutes at room temperature.
6). […] (Tecan Spark 10M Multimode Plate Reader)
1). Determine the average absorbance of each sample.
2). Subtract the average absorbance of the background wells from the average absorbance of the 100% initial activity and the inhibitor wells.
3). Determine the percent inhibition or percent activity for each inhibitor using one of the following equations: […]

| IC50 [2] [nM] | SMILES | Experimental Results (analgesic activity in the formalin model) [1] | inhibition in vivo at 3 mg/kg [1] [%] |
| --- | --- | --- | --- |
| < 0.1 | O=C(OC(C(F)(F)F)C(F)(F)F)N1CCC(c2cc3n(n2)-c2ccc(F)cc2CC3)CC1 [Compound 1, 1,1,1,3,3,3-hexafluoropropan-2-yl 4-(7-fluoro-4,5-dihydropyrazolo[1,5-a]quinolin-2-yl)piperidine-1-carboxylate] | effective | 68 |
| 16 | O=C(OC(CO)C(F)(F)F)N1CCC(c2cc3n(n2)-c2ccc(F)cc2CC3)CC1 (stereo not drawn) [Compound 2, 1,1,1-trifluoro-3-hydroxypropan-2-yl 4-(7-fluoro-4,5-dihydropyrazolo[1,5-a]quinolin-2-yl)piperidine-1-carboxylate] | effective | 45 |
| 9.1 | O=C(OC(C(F)(F)F)C(F)(F)F)N1CCC(c2cc3n(n2)-c2ncc(F)cc2CC3)CC1 [Compound 13, 1,1,1,3,3,3-hexafluoropropan-2-yl 4-(7-fluoro-4,5-dihydropyrazolo[1,5-a][1,8]naphthyridin-2-yl)piperidine-1-carboxylate] | effective | 49 |
| 126 | Cc1c(C2CCN(C(=O)OC(C(F)(F)F)C(F)(F)F)CC2)nn2c1CCc1cc(F)cnc1-2 [Compound 17, 1,1,1,3,3,3-hexafluoropropan-2-yl 4-(7-fluoro-3-methyl-4,5-dihydropyrazolo[1,5-a][1,8]naphthyridin-2-yl)piperidine-1-carboxylate] |  |  |
| 78.3 | N#Cc1c(C2CCN(C(=O)OC(C(F)(F)F)C(F)(F)F)CC2)nn2c1CCc1cc(F)cnc1-2 [Compound 18, 1,1,1,3,3,3-hexafluoropropan-2-yl 4-(3-cyano-7-fluoro-4,5-dihydropyrazolo[1,5-a][1,8]naphthyridin-2-yl)piperidine-1-carboxylate] |  |  |
| 152 | CC(C)c1c(C2CCN(C(=O)OC(C(F)(F)F)C(F)(F)F)CC2)nn2c1CCc1cc(F)cnc1-2 [Compound 21, 1,1,1,3,3,3-hexafluoropropan-2-yl 4-(7-fluoro-3-isopropyl-4,5-dihydropyrazolo[1,5-a][1,8]naphthyridin-2-yl)piperidine-1-carboxylate] |  |  |
| 32.7 | O=C(OC(CO)C(F)(F)F)N1CCC(c2nc3n(c2Br)-c2ncc(F)cc2CC3)CC1 (stereo not drawn) [Compound 31, 1,1,1-trifluoro-3-hydroxypropan-2-yl 4-(9-bromo-3-fluoro-5,6-dihydroimidazo[1,2-a][1,8]naphthyridin-8-yl)piperidine-1-carboxylate] |  |  |
| 12.5 | CC(C)c1c(C2CCN(C(=O)OC(C(F)(F)F)C(F)(F)F)CC2)nn2c1ccc1cc(F)cnc12 [Compound 34, 1,1,1,3,3,3-hexafluoropropan-2-yl 4-(7-fluoro-3-isopropylpyrazolo[1,5-a][1,8]naphthyridin-2-yl)piperidine-1-carboxylate] |  |  |
| 13.1 | O=C(OC(C(F)(F)F)C(F)(F)F)N1CCN(c2cc3n(n2)-c2ccc(F)cc2CC3)CC1 [Compound 35, 1,1,1,3,3,3-hexafluoropropan-2-yl 4-(7-fluoro-4,5-dihydropyrazolo[1,5-a]quinolin-2-yl)piperazine-1-carboxylate] |  |  |

More lines, now with the values behind:

| SMILES | IC50 [2] [nM] | Experimental Results (analgesic activity in the formalin model) [1] | inhibition in vivo at 3 mg/kg [1] [%] |
| --- | --- | --- | --- |
| O=C(OC(C(F)(F)F)C(F)(F)F)N1CCN(Cc2ccc(C(F)(F)F)cc2N2CCCC2)CC1 [ABX-1431, reference compound] |  | effective | 33 |
| O=C(OC(CO)C(F)(F)F)N1CCC(c2nn3c(c2F)CCc2cc(F)ccc2-3)CC1 (stereo not drawn) [Compound 3, 1,1,1-trifluoro-3-hydroxypropan-2-yl 4-(3,7-difluoro-4,5-dihydropyrazolo[1,5-a]quinolin-2-yl)piperidine-1-carboxylate] |  | effective | 61 |
| O=C(OC(CO)C(F)(F)F)N1CCC(c2nn3c(c2Cl)CCc2cc(F)ccc2-3)CC1 (stereo not drawn) [Compound 4, 1,1,1-trifluoro-3-hydroxypropan-2-yl 4-(3-chloro-7-fluoro-4,5-dihydropyrazolo[1,5-a]quinolin-2-yl)piperidine-1-carboxylate] |  | effective | 51 |
| O=C(OC(CO)C(F)(F)F)N1CCC(c2nn3c(c2Br)CCc2cc(F)ccc2-3)CC1 (stereo not drawn) [Compound 5, 1,1,1-trifluoro-3-hydroxypropan-2-yl 4-(3-bromo-7-fluoro-4,5-dihydropyrazolo[1,5-a]quinolin-2-yl)piperidine-1-carboxylate] | 37.1 | effective | 44 |
| Cc1c(C2CCN(C(=O)OC(CO)C(F)(F)F)CC2)nn2c1CCc1cc(F)ccc1-2 (stereo not drawn) [Compound 6, 1,1,1-trifluoro-3-hydroxypropan-2-yl 4-(7-fluoro-3-methyl-4,5-dihydropyrazolo[1,5-a]quinolin-2-yl)piperidine-1-carboxylate] | 16.7 | effective | 44 |
| O=C(OC(CO)C(F)(F)F)N1CCC(c2nn3c(c2C(F)(F)F)CCc2cc(F)ccc2-3)CC1 (stereo not drawn) [Compound 7, 1,1,1-trifluoro-3-hydroxypropan-2-yl 4-(7-fluoro-3-(trifluoromethyl)-4,5-dihydropyrazolo[1,5-a]quinolin-2-yl)piperidine-1-carboxylate] | 89.8 | effective | 56 |
| O=C(OC(CO)C(F)(F)F)N1CC2C(C1)C2c1cc2n(n1)-c1ccc(F)cc1CC2 (stereo not drawn) [Compound 12, 1,1,1-trifluoro-3-hydroxypropan-2-yl 6-(7-fluoro-4,5-dihydropyrazolo[1,5-a]quinolin-2-yl)-3-azabicyclo[3.1.0]hexane-3-carboxylate] |  | effective | 64 |
| O=C(OC(C(F)(F)F)C(F)(F)F)N1CCC(c2nc3n(n2)-c2ccc(F)cc2CC3)CC1 [Compound 24, 1,1,1,3,3,3-hexafluoropropan-2-yl 4-(7-fluoro-4,5-dihydro-[1,2,4]triazolo[1,5-a]quinolin-2-yl)piperidine-1-carboxylate] |  | effective | 50 |
| O=C(OC(CO)C(F)(F)F)N1CCC(c2cn3c(n2)CCc2cc(F)ccc2-3)CC1 (stereo not drawn) [Compound 26, 1,1,1-trifluoro-3-hydroxypropan-2-yl 4-(7-fluoro-4,5-dihydroimidazo[1,2-a]quinolin-2-yl)piperidine-1-carboxylate] | 83.4 |  |  |
| O=C(OC(CO)C(F)(F)F)N1CCC(c2nc3n(c2Br)-c2ccc(F)cc2CC3)CC1 (stereo not drawn) [Compound 28, 1,1,1-trifluoro-3-hydroxypropan-2-yl 4-(1-bromo-7-fluoro-4,5-dihydroimidazo[1,2-a]quinolin-2-yl)piperidine-1-carboxylate] | 25.1 |  |  |
